Test results: publication PMC4335020, “Single Oral Dose Pharmacokinetics of Decursin and Decursinol Angelate in Healthy Adult Men and Women” (PLoS ONE, 2015)
Read-outs that look alike come from different tables or passages of the source.

Experiment: Single oral dose human plasma pharmacokinetics of D, DA and DOH after Cogni.Q
Assay type: in vivo
Settings: for AUC(0-t) / Cmax / half-life / Tmax: human, plasma
Text: Ten healthy male and 10 female subjects were recruited by public announcement in Amarillo, TX, from January 2013 to April 2013 (see Fig. 1 CONSORT diagram). The sample size for each gender was chosen without power calculation due to the lack of prior knowledge of PK parameter variance in humans. After receiving informed consent verbally and in writing, the health status of each candidate was confirmed by health questionnaire, plasma biochemistry (hepatic and renal functions), complete blood cell count (CBC), and a physical examination by a participating academic physician. Subjects with diabetes, or pregnant, perinatal and breastfeeding women were excluded. For the 48 hours preceding study visit until the final blood draw, all subjects were instructed to avoid taking any prescription or nonprescription drugs, vitamins, and herbal/dietary supplements. Each subject was compensated for participating in the study per TTUHSC IRB approved rate.
Eligible subjects arrived at our clinical facility at 0700 (7:00 am) on the test day after a fast beginning at 2200 (10:00 pm) the previous night. After a brief review of vital signs, the nurse placed an intravenous (IV) line with saline drip in one arm of each subject. A baseline pre-dose (hour 0) blood sample was drawn through the IV line; after that subjects swallowed four Cogni.Q vegicaps with 240 mL of water at hour 0 under direct supervision. Subjects stayed at the clinical facility in their room for the next 12 hours, returning at 24 and 48 hours. Blood was drawn at baseline (hour 0) and at 0.5, 1, 2, 3, 4, 6, 8, 12, 24 and 48 hours after dosing into Vacutainer Blood Collection Tube (Becton-Dickinson, Franklin Lakes, NJ. Product Number: 367874, Sodium heparin was used as anti-coagulant). Water was allowed as desired except for within the first hour after Cogni.Q consumption. All subjects received standardized meals at post-dose hours 4.5 and 9.5 but no food was allowed for at least the first 4 hours post-dose.
Plasma was prepared by centrifuging the heparinized blood at 1000 g for 15 minutes at room temperature. Urine samples (40mL) were collected within time spans of 0–4, 4–8, 8–12 and 12–24 hours (total volume of urine was recorded). All plasma and urine samples were put on dry ice immediately and then stored at -80°C freezer until analysis.
Plasma samples were extracted with a validated solid supported liquid extraction (SLE) method facilitated with a positive pressure manifold (Biotage, Charlotte, NC). Briefly, 100 μL of plasma sample was spiked with 5 μL of 10 ng/μL prednisolone (IS), diluted with 200 μL of LC-MS grade water, mixed and loaded onto ISOLUTE SLE+ 400 μL Array Well cartridges (Biotage, Charlotte, NC). A pulse of minimum positive pressure was applied to facilitate the samples absorption into the cartridges. After the samples were allowed to absorb for 5 min, the compounds were eluted with 2×500 μL tert-butyl methyl ether. The eluent was dried in a Speedvac and the resulting residue was reconstituted in 50 μL of methanol for UHPLC-MS/MS analysis.
Eight-point calibration curves were constructed for D, DA and DOH, at concentrations of 0.1, 0.5, 1, 5, 10, 20, 50 and 100 μg/L for D and DA, and at concentrations of 1, 5, 10, 50, 100, 200, 500 and 1000 μg/L for DOH, respectively. The linear range was 0.1–100 μg/L (0.3–300 nmol/L), 0.1–100 μg/L (0.3–300 nmol/L) and 1–1000 μg/L (4–4000 nmol/L) for D, DA and DOH, respectively. The inter- and intra-assay CV were lower than 6.5% and the accuracy was between 90–105%. Calibration curve was run for each batch of samples analyzed. The mean calibration curve correlation coefficient (r) for D, DA and DOH was 0.999, 0.999 and 0.998, respectively (data from 7–10 calibration curves). In addition, 70% of the plasma samples were extracted and analyzed twice, the data from two replicate analyses were nearly identical and combined for final data analyses and presentation. […]

CC(C)=CC(=O)O[C@H]1Cc2cc3ccc(=O)oc3cc2OC1(C)C [D, decursin]
AUC(0-t) (oral, 4 Cogni.Q vegicaps, subject S10 (185 lb), read-out: AUC0-48h): 46.6 nmol·h/L
Cmax (oral, 4 Cogni.Q vegicaps, subject S10 (185 lb), read-out: Cmax): 5.7 nM
half-life (oral, 4 Cogni.Q vegicaps, subject S10 (185 lb), read-out: Terminal t1/2, h (converted)): 804 min
Tmax (oral, 4 Cogni.Q vegicaps, subject S10 (185 lb), read-out: Tmax): 0.5 h
AUC(0-t) (oral, 4 Cogni.Q vegicaps, subject S11 (178 lb), read-out: AUC0-48h): 14.7 nmol·h/L
Cmax (oral, 4 Cogni.Q vegicaps, subject S11 (178 lb), read-out: Cmax): 2.5 nM
half-life (oral, 4 Cogni.Q vegicaps, subject S11 (178 lb), read-out: Terminal t1/2, h (converted)): 1210 min
Tmax (oral, 4 Cogni.Q vegicaps, subject S11 (178 lb), read-out: Tmax): 1 h
AUC(0-t) (oral, 4 Cogni.Q vegicaps, subject S12 (169 lb), read-out: AUC0-48h): 24.8 nmol·h/L
Cmax (oral, 4 Cogni.Q vegicaps, subject S12 (169 lb), read-out: Cmax): 1.3 nM
half-life (oral, 4 Cogni.Q vegicaps, subject S12 (169 lb), read-out: Terminal t1/2, h (converted)): 942 min
Tmax (oral, 4 Cogni.Q vegicaps, subject S12 (169 lb), read-out: Tmax): 2 h
AUC(0-t) (oral, 4 Cogni.Q vegicaps, subject S13 (192 lb), read-out: AUC0-48h): 13.5 nmol·h/L
Cmax (oral, 4 Cogni.Q vegicaps, subject S13 (192 lb), read-out: Cmax): 1.3 nM
half-life (oral, 4 Cogni.Q vegicaps, subject S13 (192 lb), read-out: Terminal t1/2, h (converted)): 1550 min
Tmax (oral, 4 Cogni.Q vegicaps, subject S13 (192 lb), read-out: Tmax): 0.5 h
AUC(0-t) (oral, 4 Cogni.Q vegicaps, subject S14 (200 lb), read-out: AUC0-48h): 21.5 nmol·h/L
Cmax (oral, 4 Cogni.Q vegicaps, subject S14 (200 lb), read-out: Cmax): 8.6 nM
half-life (oral, 4 Cogni.Q vegicaps, subject S14 (200 lb), read-out: Terminal t1/2, h (converted)): 270 min
Tmax (oral, 4 Cogni.Q vegicaps, subject S14 (200 lb), read-out: Tmax): 1 h
AUC(0-t) (oral, 4 Cogni.Q vegicaps, subject S15 (177 lb), read-out: AUC0-48h): 23.8 nmol·h/L
Cmax (oral, 4 Cogni.Q vegicaps, subject S15 (177 lb), read-out: Cmax): 16.8 nM
half-life (oral, 4 Cogni.Q vegicaps, subject S15 (177 lb), read-out: Terminal t1/2, h (converted)): 1590 min
Tmax (oral, 4 Cogni.Q vegicaps, subject S15 (177 lb), read-out: Tmax): 1 h
Tmax (oral, 4 Cogni.Q vegicaps, subject S16 (175 lb), read-out: Tmax): 3 h
AUC(0-t) (oral, 4 Cogni.Q vegicaps, subject S17 (147 lb), read-out: AUC0-48h): 53.9 nmol·h/L
Cmax (oral, 4 Cogni.Q vegicaps, subject S17 (147 lb), read-out: Cmax): 9.8 nM
half-life (oral, 4 Cogni.Q vegicaps, subject S17 (147 lb), read-out: Terminal t1/2, h (converted)): 1360 min
Tmax (oral, 4 Cogni.Q vegicaps, subject S17 (147 lb), read-out: Tmax): 2 h
half-life (oral, 4 Cogni.Q vegicaps, subject S18 (180 lb), outlier, excluded from means, read-out: Terminal t1/2, h (converted)): 8310 min
AUC(0-t) (oral, 4 Cogni.Q vegicaps, subject S18 (180 lb), read-out: AUC0-48h): 25.8 nmol·h/L
Cmax (oral, 4 Cogni.Q vegicaps, subject S18 (180 lb), read-out: Cmax): 1.7 nM
Tmax (oral, 4 Cogni.Q vegicaps, subject S18 (180 lb), read-out: Tmax): 4 h
AUC(0-t) (oral, 4 Cogni.Q vegicaps, subject S19 (130 lb), read-out: AUC0-48h): 35.7 nmol·h/L
Cmax (oral, 4 Cogni.Q vegicaps, subject S19 (130 lb), read-out: Cmax): 1.7 nM
half-life (oral, 4 Cogni.Q vegicaps, subject S19 (130 lb), read-out: Terminal t1/2, h (converted)): 510 min
Tmax (oral, 4 Cogni.Q vegicaps, subject S19 (130 lb), read-out: Tmax): 3 h
half-life (oral, subject S16 (175 lb), outlier, excluded from means, read-out: Terminal t1/2, h (converted)): 564 min
AUC(0-t) (oral, subject S16 (175 lb), read-out: AUC0-48h): 22.2 nmol·h/L
Cmax (oral, subject S16 (175 lb), read-out: Cmax): 2.8 nM
AUC(0-t) (oral, subject S20 (200 lb), read-out: AUC0-48h): 19.1 nmol·h/L
Cmax (oral, subject S20 (200 lb), read-out: Cmax): 1.3 nM
half-life (oral, subject S20 (200 lb), read-out: Terminal t1/2, h (converted)): 1100 min
Tmax (oral, subject S20 (200 lb), read-out: Tmax): 2 h
conversion of D/DA to DOH (humans, from plasma AUC0–48h values): > 98%
AUC(0-t) (male, oral, 4 Cogni.Q vegicaps, Men n=10 (S1 Table), read-out: AUC0-48h, Mean): 28.5 nmol·h/L
Cmax (male, oral, 4 Cogni.Q vegicaps, Men n=10 (S1 Table), read-out: Cmax, nM, Mean): 5.22 nM
Tmax (male, oral, 4 Cogni.Q vegicaps, Men n=10 (S1 Table), read-out: Tmax, h, Mean): 1.7 h
half-life (male, oral, Men, outliers excluded (S1 Table), read-out: Terminal t1/2, h, Mean (converted)): 1060 min
AUC(0-t) (male, po, Men N = 10, single oral dose Cogni.Q, read-out: AUC0–48h, h.nmol/L Mean (SD)): 28.5 nmol·h/L
Cmax (male, po, Men N = 10, single oral dose Cogni.Q, read-out: Cmax, nmol/L, Mean (SD)): 5.2 nM
Tmax (male, po, Men N = 10, single oral dose Cogni.Q, read-out: Tmax, h, Mean (SD)): 1.7 h
half-life (male, po, Men, outlier subjects excluded, single oral dose Cogni.Q, read-out: T1/2, h, terminal Mean (SD) (converted)): 1060 min
